# Key:
# Format in all cases: in vivo
# [1] = system: pigweed (Amaranthus retroflexus); assay: Preemergence herbicidal activity; conditions: 17.5 g/Ha; scored after 3 weeks; 0 no injury, 100 complete kill or no germination
# Protocol: (§1) The soil matrix was contained in plastic pots with a surface area of 161 square centimeters. When required to ensure good germination and healthy plants, a fungicide treatment and/or other chemical or physical treatment was applied. A weighed amount, determined by the highest rate to be tested, of each test compound was placed in a 20 mL glass vial and was dissolved in 8 mL of a 97:3 v/v (volume/volume) mixture of acetone and dimethyl sulfoxide to obtain concentrated stock solutions. […] The stock solutions obtained were diluted with a 99.9:0.1 mixture of water and Tween® 155 surfactant (ethoxylated sorbitan fatty acid ester) to obtain application solutions of known concentration. The solutions containing the highest concentration to be tested were prepared by diluting 4 mL aliquots of the stock solution with 8.5 mL of the mixture and lower concentrations were prepared by dilution of appropriate smaller portions of the stock solution. A 2.5 mL aliquot of each solution of known concentration was sprayed evenly onto the soil of each seeded pot using a Cornwall 5.0 mL glass syringe fitted with a TeeJet TN-3 hollow cone nozzle to obtain thorough coverage of the soil in each pot. Control pots were sprayed in the same manner with the aqueous mixture. A highest application rate of 4.48 kg/ha is achieved when 50 mg of test compound is employed. The treated pots and control pots were placed in a greenhouse with an approximately 15 hr photoperiod which was maintained at about 23-29° C. during the day and 22-28° C. during the night. Nutrients and water were added on a regular basis and supplemental lighting was provided with overhead metal halide 1000 Watt lamps as necessary. The water was added by top-irrigation. After 3 weeks the condition of the test plants that germinated and grew as compared with that of the untreated plants that germinated and grew was determined visually and scored on a scale of 0 to 100 percent where 0 corresponds to no injury and 100 corresponds to complete kill or no germination.
# [2] = system: cocklebur (Xanthium strumarium); assay: Preemergence herbicidal activity; conditions: 17.5 g/Ha; scored after 3 weeks; 0 no injury, 100 complete kill or no germination
# Protocol: as §1
# [3] = system: wild poinsettia (Euphorbia heterophylla); assay: Preemergence herbicidal activity; conditions: 17.5 g/Ha; scored after 3 weeks; 0 no injury, 100 complete kill or no germination
# Protocol: as §1
# [4] = system: blackgrass (Alopecurus myosuroides); assay: Preemergence herbicidal activity; conditions: 17.5 g/Ha; scored after 3 weeks; 0 no injury, 100 complete kill or no germination
# Protocol: as §1
# [5] = system: velvetleaf (Abutilion theophrasti); assay: Preemergence herbicidal activity; conditions: 17.5 g/Ha; scored after 3 weeks; 0 no injury, 100 complete kill or no germination
# Protocol: as §1
# [6] = system: barnyardgrass (Echinochloa crus-galli); assay: Preemergence herbicidal activity; conditions: 17.5 g/Ha; scored after 3 weeks; 0 no injury, 100 complete kill or no germination
# Protocol: as §1
# [7] = system: giant foxtail (Setaria faberi); assay: Preemergence herbicidal activity; conditions: 17.5 g/Ha; scored after 3 weeks; 0 no injury, 100 complete kill or no germination
# Protocol: as §1
# [8] = system: Rox orange sorghum (Sorghum bicolor); assay: Preemergence herbicidal activity; conditions: 17.5 g/Ha; scored after 3 weeks; 0 no injury, 100 complete kill or no germination
# Protocol: as §1
# [9] = system: morningglory (Ipomoea hederacea); assay: Preemergence herbicidal activity; conditions: 17.5 g/Ha; scored after 3 weeks; 0 no injury, 100 complete kill or no germination
# Protocol: as §1
# wild oats (Avena fatua) [10] = assay: Preemergence herbicidal activity; conditions: 17.5 g/Ha; scored after 3 weeks; 0 no injury, 100 complete kill or no germination
# Protocol: as §1
# [11] = system: crabgrass (Digitaria sanguinalis); assay: Preemergence herbicidal activity; conditions: 17.5 g/Ha; scored after 3 weeks; 0 no injury, 100 complete kill or no germination
# Protocol: as §1
# [12] = system: lambsquarters (Chenopodium album); assay: Preemergence herbicidal activity; conditions: 17.5 g/Ha; scored after 3 weeks; 0 no injury, 100 complete kill or no germination
# Protocol: as §1
# viola (Viola tricolor) = assay: Postemergence herbicidal activity; conditions: scored after 2 weeks, 0 no injury, 100 complete kill
# Protocol: (§2) Seeds of the desired test plant species were planted in Grace-Sierra MetroMix® 306 planting mixture, which typically has a pH of 6.0 to 6.8 and an organic matter content of about 30 percent, in plastic pots with a surface area of 64 square centimeters. When required to ensure good germination and healthy plants, a fungicide treatment and/or other chemical or physical treatment was applied. The plants were grown for 7-21 days in a greenhouse with an approximately 15 hr photoperiod which was maintained at about 23-29° C. during the day and 22-28° C. during the night. Nutrients and water were added on a regular basis and supplemental lighting was provided with overhead metal halide 1000 Watt lamps as necessary. The plants were employed for testing when they reached the first or second true leaf stage. A weighed amount of each test compound, determined by the highest rate to be tested, was placed in a 20 mL glass vial and was dissolved in 4 mL of a 97:3 v/v (volume/volume) mixture of acetone and dimethyl sulfoxide to obtain concentrated stock solutions. […] The concentrated stock solutions obtained were diluted with an aqueous mixture containing acetone, water, iso-propyl alcohol, dimethyl sulfoxide, Atplus 411F crop oil concentrate, and Triton X-155 surfactant (methylenebisdiamyl phenoxy polyethoxy ethanol) in a 48.5:39:10:1.5:1.0:0.02 v/v ratio to obtain spray solutions of known concentration. The solutions containing the highest concentration to be tested were prepared by diluting 2 mL aliquots of the stock solution with 13 mL of the mixture and lower concentrations were prepared by dilution of appropriate smaller portions of the stock solution. Approximately 1.5 mL aliquots of each solution of known concentration were sprayed evenly onto each of the test plant pots using a Devilbiss atomizer driven by compressed air pressure of 2 to 4 psi (140 to 280 kiloPascals) to obtain thorough coverage of each plant. Control plants were sprayed in the same manner with the aqueous mixture. In this test an application rate of 1 ppm results in the application of approximately 1 g/ha. The treated plants and control plants were placed in a greenhouse as described above and watered by sub-irrigation to prevent wash-off of the test compounds. After 2 weeks the condition of the test plants as compared with that of the untreated plants was determined visually and scored on a scale of 0 to 100 percent where 0 corresponds to no injury and 100 corresponds to complete kill.
# [13] = system: pigweed (Amaranthus retroflexus); assay: Postemergence herbicidal activity; conditions: scored after 2 weeks, 0 no injury, 100 complete kill
# Protocol: as §2
# [14] = system: cocklebur (Xanthium strumarium); assay: Postemergence herbicidal activity; conditions: scored after 2 weeks, 0 no injury, 100 complete kill
# Protocol: as §2
# [15] = system: blackgrass (Alopecurus myosuroides); assay: Postemergence herbicidal activity; conditions: scored after 2 weeks, 0 no injury, 100 complete kill
# Protocol: as §2
# [16] = system: velvetleaf (Abutilion theophrasti); assay: Postemergence herbicidal activity; conditions: scored after 2 weeks, 0 no injury, 100 complete kill
# Protocol: as §2
# [17] = system: giant foxtail (Setaria faberi); assay: Postemergence herbicidal activity; conditions: scored after 2 weeks, 0 no injury, 100 complete kill
# Protocol: as §2
# [18] = system: Rox orange sorghum (Sorghum bicolor); assay: Postemergence herbicidal activity; conditions: scored after 2 weeks, 0 no injury, 100 complete kill
# Protocol: as §2
# [19] = system: morningglory (Ipomoea hederacea); assay: Postemergence herbicidal activity; conditions: scored after 2 weeks, 0 no injury, 100 complete kill
# Protocol: as §2
# wild oats (Avena fatua) [20] = assay: Postemergence herbicidal activity; conditions: scored after 2 weeks, 0 no injury, 100 complete kill
# Protocol: as §2
# [21] = system: chickweed (Stellaria media); assay: Postemergence herbicidal activity; conditions: scored after 2 weeks, 0 no injury, 100 complete kill
# Protocol: as §2
# [22] = system: lambsquarters (Chenopodium album); assay: Postemergence herbicidal activity; conditions: scored after 2 weeks, 0 no injury, 100 complete kill
# Protocol: as §2
# [23] = system: wild buckwheat (Polygonum convolvulus); assay: Postemergence herbicidal activity; conditions: scored after 2 weeks, 0 no injury, 100 complete kill
# Protocol: as §2
SMILES,Preemergence herbicidal activity AMARE [1] [%],Preemergence herbicidal activity XANST [2] [%],Preemergence herbicidal activity EPHHL [3] [%],Preemergence herbicidal activity ALOMY [4] [%],Preemergence herbicidal activity ABUTH [5] [%],Preemergence herbicidal activity ECHCG [6] [%],Preemergence herbicidal activity SETFA [7] [%],Preemergence herbicidal activity SORBI [8] [%],Preemergence herbicidal activity IPOHE [9] [%],Preemergence herbicidal activity AVEFA (wild oats (Avena fatua) [10]) [%],Preemergence herbicidal activity DIGSA [11] [%],Preemergence herbicidal activity CHEAL [12] [%],also measured
COc1cc(OC)n2nc(NS(=O)(=O)c3c(I)ccnc3OC)nc2n1 [Compound 17],100,65,100,99,75,100,100,99,60,90,100,100,Postemergence herbicidal activity VIOTR (viola (Viola tricolor); 15.6 ppm): 98%; Postemergence herbicidal activity AMARE ([13]; 15.6 ppm): 100%; Postemergence herbicidal activity XANST ([14]; 15.6 ppm): 90%; Postemergence herbicidal activity ALOMY ([15]; 15.6 ppm): 90%; Postemergence herbicidal activity ABUTH ([16]; 15.6 ppm): 78%; Postemergence herbicidal activity SETFA ([17]; 15.6 ppm): 90%; Postemergence herbicidal activity SORBI ([18]; 15.6 ppm): 90%; Postemergence herbicidal activity IPOHE ([19]; 15.6 ppm): 70%; Postemergence herbicidal activity AVEFA (wild oats (Avena fatua) [20]; 15.6 ppm): 90%; Postemergence herbicidal activity STEME ([21]; 15.6 ppm): 75%; Postemergence herbicidal activity CHEAL ([22]; 15.6 ppm): 100%; Postemergence herbicidal activity POLCO ([23]; 15.6 ppm): 75%
"CCOc1cccc(C(F)(F)F)c1S(=O)(=O)Nc1nc2nc(OC)cc(OC)n2n1 [Compound 14, N-(5,7-dimethoxy[1,2,4]triazolo[1,5-a]-pyrimidin-2-yl)-2-ethoxy-6-(trifluoromethyl)benzenesulfonamide]",95,70,85,80,85,80,85,85,75,60,80,95,Postemergence herbicidal activity VIOTR (viola (Viola tricolor); 7.8 ppm): 90%; Postemergence herbicidal activity AMARE ([13]; 7.8 ppm): 100%; Postemergence herbicidal activity XANST ([14]; 7.8 ppm): 100%; Postemergence herbicidal activity ALOMY ([15]; 7.8 ppm): 70%; Postemergence herbicidal activity ABUTH ([16]; 7.8 ppm): 90%; Postemergence herbicidal activity SETFA ([17]; 7.8 ppm): 90%; Postemergence herbicidal activity SORBI ([18]; 7.8 ppm): 70%; Postemergence herbicidal activity IPOHE ([19]; 7.8 ppm): 80%; Postemergence herbicidal activity AVEFA (wild oats (Avena fatua) [20]; 7.8 ppm): 50%; Postemergence herbicidal activity STEME ([21]; 7.8 ppm): 98%; Postemergence herbicidal activity CHEAL ([22]; 7.8 ppm): 100%; Postemergence herbicidal activity POLCO ([23]; 7.8 ppm): 90%
